Laboratory results: PubChem BioAssay (NCI)
Values joined by “and” are separate entries in the source; they are usually repeats but may differ in a detail not shown here. Equal entries are not always repeated.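 Method: 48-hour compound exposure of cells in 96-well plates, five concentrations, linear interpolation of endpoints. The concentration for 50% growth inhibition is given as GI50. TGI: concentration producing complete growth inhibition.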

Test system: MDA-MB-468 breast
Assay: NCI tumour cell line growth inhibition, 48 h

Structure (SMILES) | GI50 | TGI
O=C(Nc1ccc(F)cc1)Nc1ccc(Cl)c([N+](=O)[O-])c1 | 2150 nM | 7540 nM
CCN1/C(=C\c2cc[n+](CC)c3ccccc23)C=Cc2ccccc21 | 109 nM | 519 nM
FC(F)(F)c1cccc(Nc2nc(-c3ccccc3)nc3ncccc23)c1 | 2420 nM | 7710 nM
Cc1cc(-c2nc(C(=O)Nc3cc4oc(N5CCOCC5)nc4nc3N3CC[C@@H](O)C3)co2)ccn1 | 13300 nM | 64800 nM
Cn1cc(C2=C(c3c4n(c5ccccc35)CCCCC4)C(=O)NC2=O)c2ccccc21 | 1170 nM | > 19900 nM
COc1ccc2c(c1)sc1nc(-c3ccccc3)c(-c3cccc4ccccc34)n12 | 1470 nM | 5050 nM
Cc1ccc(NC(=O)Nc2ccc(-c3cccnc3)cc2N2CCC(CO)CC2)cc1 | 2490 nM | 7120 nM
Fc1[nH]nc2ccc([C@@H]3Nc4ccc5[nH]ncc5c4[C@H]4C5CCC(C5)[C@@H]34)cc12 (some centres not stated) | 361 nM | 12000 nM
NS(=O)(=O)OC[C@@H]1C[C@@H](n2ccc3c(NC4CCc5ccccc54)ncnc32)C[C@@H]1O (some centres not stated) | 1310 nM | 50200 nM
OCc1cc2ccccc2c2c3c(ccc12)OCO3 | 18900 nM | 65100 nM
C=CC(=O)Nc1cc(Nc2ncc(C(=O)OC(C)C)c(-c3cn(C)c4ccccc34)n2)c(OC)cc1N(C)CCN(C)C | < 10 nM | 69 nM
COc1cc2c(c(OC)c1OC)-c1ccc(NNC(N)=S)c(=O)cc1[C@@H](NC(C)=O)CC2 | 233 nM | –
Cc1ccc(CN2CCC(C(=O)Nc3ccc(-c4cc5ccccc5[nH]4)cc3)CC2)o1 | 83400 nM | > 100000 nM
C=CCO[C@H]1CO[C@H]2[C@@H]1OC[C@@H]2Oc1ccc(Nc2ccnc(Nc3ccc(O[C@H]4CO[C@H]5[C@@H]4OC[C@@H]5OCC=C)c(Cl)c3)n2)cc1Cl | 1620 nM | 3130 nM
C[C@@H](Oc1cc(-n2cnc3ccc(CN4CCN(C)CC4)cc32)sc1C(N)=O)c1ccccc1C(F)(F)F | < 10 nM and 4 nM | 1400 nM and 2870 nM
COc1cccc(C2c3cc4c(cc3OC(C)(N3CCCC3)C2C)OCO4)c1O (configuration not stated) | 4660 nM | > 100000 nM
COC1/C=C/OC2(C)Oc3c(C)c(O)c4c(O)c(c(/C=N/Nc5ccc([N+](=O)[O-])cc5[N+](=O)[O-])c(O)c4c3C2=O)NC(=O)C(C)=C/C=C/C(C)C(O)C(C)C(O)C(C)C(OC(C)=O)C1C (configuration not stated) | 1110 nM | 2860 nM
CC1CCc2nc[nH]c(=O)c21 (configuration not stated) | > 100000 nM | > 100000 nM
Nc1c(C(=O)c2cccc(CCS(N)(=O)=O)c2)cnn1-c1ccc(F)cc1 | > 17700 nM | > 25000 nM
OC1CSSC1Cn1cnc2c(Nc3ccc(OCc4cccc(F)c4)c(Cl)c3)ncnc21 (configuration not stated) | 786 nM | 2120 nM
COc1cnc2c(c1)C(=O)c1c-2n(CCCN2CCOCC2)c(=O)c2cc(F)ccc12 | 195 nM | 656 nM
Cc1ccnc2c1ccc1c(C)ccnc12 | 360 nM | 2720 nM
CN(C)c1ccc(/C=C\C2=[N+](C)c3ccccc3C2(C)C)cc1 | 287 nM | 5080 nM
O=C(Nc1ccc(-n2ccc3c(NC(=O)c4ccccc4)nccc32)cc1)c1ccc(Cl)c(C(F)(F)F)c1 | 919 nM | 5650 nM
COC(=O)/C=C1\S/C(=N\NC(=O)c2cc3ccc2/C=C\c2ccc(cc2)/C=C\3)N(c2ccccc2)C1=O | 1840 nM | 3740 nM
CN1CCCCC1CCN1c2ccccc2Sc2ccc(Cl)cc21 (configuration not stated) | 1940 nM | 4440 nM
COc1cccc(-c2cc(-c3cccc(NS(C)(=O)=O)c3)nc(N)c2C#N)c1O | 421 nM | 4230 nM
COc1ccc([C@H]2[C@H](O)C(=O)N2c2cc(OC)c(OC)c(OC)c2)cc1F | < 10 nM | > 100000 nM
O=C1NC(=NCCc2cccc(F)c2)S/C1=C\c1ccc2ncccc2c1 | 1180 nM | > 20400 nM
